Measured values taken from US20210186972A1, “FORMULATIONS AND METHODS FOR THE PREVENTION AND TREATMENT OF TUMOR METASTASIS AND TUMORIGENESIS” (THE UNITED STATES OF AMERICA, AS REPRESENTED BY THE …, priority 2018, published 2021).

Columns and labels:
[1] = test system: PC3M-GFP-PTB cells; experiment: Cytotoxicity measured by cellular ATP (CELLTITER GLO); assay type: cell-based, human
Excerpt: FIG. 1 is a graph showing the concentration-response curve against PNC prevalence in PC3M (a metastatic prostate cancer cell line)-GFP (green fluorescent protein)-PTB (polypyrimidine tract-binding protein) cells (squares, PC3M, has a PNC prevalence of 75-85% in the absence of treatment) and cytotoxicity as measured by cellular ATP (CELLTITER GLO™) (circles). Representative PTB-GFP images for cells at the indicated concentrations (arrowheads indicate PNCs) (scale bar=5 μm) are shown in the three panels above the graph. The relative signal (%) is along the y-axis and Metarrestin [log M] is along the x-axis.

[2] = test system: KPC mice; experiment: Veterinary histopathology and clinical chemistry, KPC mice; assay type: in vivo
[3] = female, KPC, mouse, in vivo, 3 months
[4] = male, KPC, mouse, in vivo, 3 months

## N=c1c2c(-c3ccccc3)c(-c3ccccc3)n(Cc3ccccc3)c2ncn1[C@H]1CC[C@H](O)CC1 [metarrestin]
[1]
  Acute cytotoxicity (cellular ATP): without acute cytotoxicity
[2]; KPC-Metarrestin Female F01
  Ileum segmented filamentous bacteria: 3/3
[2]; KPC-Metarrestin Male M01
  Ileum segmented filamentous bacteria: 4/4
[2]; [3]
  Adrenal hyperplasia, subcapsular cell: 2/3
  Duodenum dilatation: 3/3
  Femur marrow hyperplasia, granulocytic: 1/3
  Gall Bladder hyperplasia, papillary: 3/3
  Kidney hydronephrosis: 1/3
  Kidney mineralization: 1/3
  Liver deformity: 1/3
  Liver inflammation, subacute: 3/3
  Lung lymphocytic infiltrate: 3/3
  Pancreas duct, dilation: 3/3
  Pancreas neoplasm, graded: 3/3
  Salivary Gland lymphocytic infiltrate: 2/3
  Spleen extramedullary hematopoiesis, erythrocytic, increased erythropoiesis: 1/3
  Spleen fibrosis: 1/3
  Spleen melanin: 1/3
  Stomach, glandular, hyperplasia, foveolar cells: 3/3
  Thyroid ectopic thymus: 1/3
  Vertebra hyperplasia, granulocytic, marrow: 1/3
[2]; [4]
  Adrenal lipogenic pigment: 3/4
  Cecum proliferative typhlitis: 1/4
  Duodenum dilatation: 1/4
  Duodenum hyperplasia, crypt: 1/4
  Femur marrow hyperplasia, granulocytic: 4/4
  Gall Bladder hyperplasia, papillary: 4/4
  Heart dilation, atrium: 1/4
  Heart mineralization: 1/4
  Kidney mineralization: 1/4
  Kidney vacuolation. proximal tubule: 1/4
  LN, mandibular hyperplasia, lymphoid: 1/4
  LN, mandibular plasmacytosis: 1/4
  Liver inflammation, subacute: 2/4
  Liver lymphocytic infiltrate: 2/4
  Lung lymphocytic infiltrate: 3/4
  Pancreas duct, dilation: 4/4
  Pancreas neoplasm, graded: 4/4
  Skin/Subcutis inflammation, chronic active: 1/4
  Spleen extramedullary hematopoiesis, erythrocytic, increased erythropoiesis: 1/4
  Spleen fibrosis: 2/4
  Stomach, glandular, hyperplasia, foveolar cells: 2/4
  Stomach, nonglandular, erosion: 1/4
  Thyroid hyperplasia, papillary: 1/4
  Vertebra hyperplasia, granulocytic, marrow: 4/4
[2]; mouse, in vivo, 10 mg/kg
  Histopathological or laboratory abnormalities: failed to discern any histopathological or laboratory abnormalities
[2]; mouse, in vivo, po, 25 mg/kg
  Histopathological or laboratory abnormalities: failed to discern any histopathological or laboratory abnormalities
